Results reported in US12648933B2, “Pharmaceutical preparation” (KOWA COMPANY, LTD., priority 2018, dated 2026).
“Also recorded” adds a separate entry of the source.

Assay: Examination on Stability (storage at 60° C. and 80% RH for 21 days, state of sample)
Type: physicochemical
Conditions: glass vessel with lid opened (1-1 to 1-3) or closed glass bottle = tight package (1-4)
Text: Examination on Stability […] […] Pemafibrate as it was placed in a glass vessel with a lid opened and labeled as Sample 1-1. […] Ethylcellulose ([…] Co., Ltd.) was mixed with pemafibrate in a ratio of 1 part by mass to 1 part by mass of pemafibrate to obtain a mixture. […] Ethylcellulose ([…] Co., Ltd.) was mixed with pemafibrate in a ratio of 1 part by mass to 1 part by mass of pemafibrate to obtain a mixture.

In the case of `CC[C@@H](Oc1cccc(CN(CCCOc2ccc(OC)cc2)c2nc3ccccc3o2)c1)C(=O)O` [Sample 1-1, (2R)-2-[3-([1,3-Benzoxazol-2-yl[3-(4-methoxyphenoxy)propyl]amino]methyl)phenoxy]butanoic acid], the “State of mixture, 21 days later” value (after 21 days of storage) is reported as “maintained the same state; also recorded: White powder” and the “State of mixture, immediately after the start of storage” value (start of storage) is reported as “White powder”.
